Experimental data as given in patent publication US6972296B2, “Carboxylic acid derivatives that inhibit the binding of integrins to their receptors” (Encysive Pharmaceuticals Inc., priority 1999, dated 2005).
One block for each compound: values may come before it.

Molecular target: T1, α4β1 integrin (Homo sapiens, UniProt P05556+P13612)
T1 construct: endogenous in cells; host or cells: Ramos cells
Test: Adhesion of calcein-labeled Ramos cells to CS1 (fibronectin) peptide conjugated ovalbumin
Format: cell-based
Conditions: Ramos cell adhesion to CS1 conjugated ovalbumin
How it was run: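 Plates bearing CS1 fibronectin peptide coupled to ovalbumin (0.5 μg/ml coat, 3% BSA block) received calcein-labelled Ramos cells plus compound (100 μM stated) for 30 min at 37 °C. Buffer was TBS pH 7.5 with 1 mM Mg2+, Ca2+, Mn2+; bound cells quantified by fluorescence after lysis; […].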

[1] = Table 5, dose required to give 50% inhibition
[2] = Table 7, dose required to give 50% inhibition

T1 sequence (P13612 34-1032): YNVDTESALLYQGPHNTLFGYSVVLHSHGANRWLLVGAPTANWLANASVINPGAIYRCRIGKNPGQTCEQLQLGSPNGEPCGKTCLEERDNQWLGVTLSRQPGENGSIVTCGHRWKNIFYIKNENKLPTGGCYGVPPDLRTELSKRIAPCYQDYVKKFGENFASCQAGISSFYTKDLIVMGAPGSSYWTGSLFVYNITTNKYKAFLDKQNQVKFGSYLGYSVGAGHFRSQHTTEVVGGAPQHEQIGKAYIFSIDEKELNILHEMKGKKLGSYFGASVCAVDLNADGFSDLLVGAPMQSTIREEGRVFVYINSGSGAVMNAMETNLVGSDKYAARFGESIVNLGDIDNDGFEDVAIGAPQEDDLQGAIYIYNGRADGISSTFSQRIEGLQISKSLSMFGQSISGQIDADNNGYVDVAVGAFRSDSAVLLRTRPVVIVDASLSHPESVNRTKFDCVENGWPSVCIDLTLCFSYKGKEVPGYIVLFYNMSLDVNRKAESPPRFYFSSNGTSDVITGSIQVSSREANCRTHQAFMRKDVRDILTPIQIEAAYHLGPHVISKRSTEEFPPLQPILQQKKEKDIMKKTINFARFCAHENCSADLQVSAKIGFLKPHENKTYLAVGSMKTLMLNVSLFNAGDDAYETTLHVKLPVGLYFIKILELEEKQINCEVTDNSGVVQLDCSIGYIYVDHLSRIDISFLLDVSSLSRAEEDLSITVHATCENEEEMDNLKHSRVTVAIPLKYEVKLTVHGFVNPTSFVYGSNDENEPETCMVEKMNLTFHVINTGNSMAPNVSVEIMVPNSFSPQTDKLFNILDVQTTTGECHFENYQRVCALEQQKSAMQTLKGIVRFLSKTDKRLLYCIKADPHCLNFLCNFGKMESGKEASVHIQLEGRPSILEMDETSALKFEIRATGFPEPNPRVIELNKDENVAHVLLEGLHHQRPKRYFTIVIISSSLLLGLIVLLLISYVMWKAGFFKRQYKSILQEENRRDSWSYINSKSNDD
T1 sequence (P05556 21-798): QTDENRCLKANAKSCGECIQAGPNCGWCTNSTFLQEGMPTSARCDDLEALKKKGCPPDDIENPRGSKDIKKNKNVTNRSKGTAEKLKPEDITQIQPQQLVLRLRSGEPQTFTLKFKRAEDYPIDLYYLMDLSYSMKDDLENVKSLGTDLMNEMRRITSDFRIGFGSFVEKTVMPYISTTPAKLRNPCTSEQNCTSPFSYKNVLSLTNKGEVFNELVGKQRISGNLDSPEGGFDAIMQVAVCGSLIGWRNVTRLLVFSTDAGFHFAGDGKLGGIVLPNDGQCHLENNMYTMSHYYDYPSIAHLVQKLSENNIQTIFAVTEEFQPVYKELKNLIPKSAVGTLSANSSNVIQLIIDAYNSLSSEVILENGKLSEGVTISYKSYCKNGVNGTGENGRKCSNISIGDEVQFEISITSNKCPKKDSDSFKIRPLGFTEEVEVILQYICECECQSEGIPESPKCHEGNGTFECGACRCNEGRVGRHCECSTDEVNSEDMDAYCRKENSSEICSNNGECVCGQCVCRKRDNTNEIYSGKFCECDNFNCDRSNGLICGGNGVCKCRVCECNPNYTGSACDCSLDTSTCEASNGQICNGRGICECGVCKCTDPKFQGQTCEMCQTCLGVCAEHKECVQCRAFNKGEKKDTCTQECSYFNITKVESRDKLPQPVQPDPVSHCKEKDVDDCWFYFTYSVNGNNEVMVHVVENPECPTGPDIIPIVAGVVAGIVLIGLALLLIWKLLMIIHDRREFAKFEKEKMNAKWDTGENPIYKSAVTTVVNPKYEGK

SMILES: Cc1ccc([C@H](CC(=O)O)NC(=O)Nc2c(O)ccn(Cc3ccc(C(C)(C)C)cc3)c2=O)cc1
IC50 [1]: 0.03 µM

SMILES: O=C(O)C[C@H](NC(=O)Nc1cccn(Cc2ccccc2Cl)c1=O)c1ccc2c(c1)OCO2
IC50 (Table 4, 30 minutes at 37° C.): 0.3 µM

SMILES: Cc1ccc([C@H](CC(=O)O)NC(=O)Nc2c(O)ccn(Cc3ccccn3)c2=O)cc1 [(3S)-3-[({[4-hydroxy-2-oxo-1-(pyridin-2-ylmethyl)-1,2-dihydropyridin-3-yl]amino}carbonyl)amino]-3-(4-methylphenyl)propanoic acid]
IC50 [1]: 0.045 µM

SMILES: CCCc1cn(Cc2ccc(Cl)cc2)c(=O)c(NC(=O)N[C@@H](CC(=O)O)c2ccc(C)cc2)c1O
IC50 [1]: 0.03 µM

SMILES: Cc1ccc([C@H](CC(=O)O)NC(=O)Nc2c(O)ccn(Cc3cc(C(F)(F)F)ccc3Cl)c2=O)cc1 [(3S)-3-{[({1-[2-chloro-5-(trifluoromethyl)benzyl]-4-hydroxy-2-oxo-1,2-dihydropyridin-3-yl}amino)carbonyl]amino}-3-(4-methylphenyl)propanoic acid]
IC50 [1]: 0.01 µM

SMILES: Cc1ccc([C@H](CC(=O)O)NC(=O)Nc2c(O)ccn(Cc3ccccc3F)c2=O)cc1 [(3S)-3-{[({1-[(2-fluorophenyl)methyl]-4-hydroxy-2-oxo-1,2-dihydro-3-pyridinyl}amino)carbonyl]amino}-3-(4-methylphenyl)propanoic acid]
IC50 (Table 3, 30 minutes at 37° C.): 0.03 µM

SMILES: COc1cccc([C@H](CC(=O)O)NC(=O)Nc2cccn(Cc3cccs3)c2=O)c1
IC50 (Table 4, 30 minutes at 37° C.): 1.4 µM

SMILES: Cc1ccc([C@H](CC(=O)O)NC(=O)Nc2cccn(Cc3ccc(F)cc3Cl)c2=O)cc1
IC50 (Table 4, 30 minutes at 37° C.): 0.35 µM

SMILES: Cc1ccc([C@H](CC(=O)O)NC(=O)Nc2cccn(Cc3cc(C)ccc3C)c2=O)cc1
IC50 (Table 4, 30 minutes at 37° C.): 0.15 µM

SMILES: Cc1ccc([C@H](CC(=O)O)NC(=O)Nc2cccn(Cc3c(C)cc(C)cc3C)c2=O)cc1
IC50 (Table 4, 30 minutes at 37° C.): 2.5 µM

SMILES: O=C(O)C[C@@H](NC(=O)Nc1cccn(Cc2ccccc2Cl)c1=O)c1ccc2c(c1)OCO2
IC50 (Table 4, 30 minutes at 37° C.): 2 µM

SMILES: Cc1ccc([C@H](CC(=O)O)NC(=O)Nc2c(O)c(C)cn(Cc3cc(C(F)(F)F)ccc3Cl)c2=O)cc1
IC50 [2]: 0.006 µM

SMILES: Cc1ccc([C@H](CC(=O)O)NC(=O)Nc2c(O)ccn(Cc3cccc(OC(F)(F)F)c3)c2=O)cc1
IC50 [1]: 0.045 µM

SMILES: COc1ccn(Cc2ccccc2Cl)c(=O)c1N(C)C(=O)N[C@@H](CC(=O)O)c1ccc(C)cc1
IC50 [2]: 2 µM

SMILES: C[C@H](CC(=O)O)NC(=O)Nc1c(O)c2c(n(Cc3ccccc3Cl)c1=O)CCC2
IC50 [2]: 0.015 µM

SMILES: Cc1ccc([C@H](CC(=O)O)NC(=O)Nc2c(C)ccn(Cc3ccccc3Br)c2=O)cc1 [(3S)-3-{[({1-[(2-bromophenyl)methyl]-4-methyl-2-oxo-1,2-dihydro-3-pyridinyl}amino)carbonyl]amino}-3-(4-methylphenyl)propanoic acid]
IC50 (Table 3, 30 minutes at 37° C.): 0.01 µM

SMILES: Cc1ccc([C@H](CC(=O)O)NC(=O)Nc2cccn(Cc3cccc(Cl)c3Cl)c2=O)cc1
IC50 (Table 4, 30 minutes at 37° C.): 0.35 µM

SMILES: O=C(O)C[C@H](NC(=O)Nc1cccn(Cc2cccs2)c1=O)c1ccc2c(c1)OCO2 [(3S)-3-(1,3-benzodioxol-5-yl)-3-[({[2-oxo-1-(2-thienylmethyl)-1,2-dihydro-3-pyridinyl]amino}carbonyl)amino]propanoic acid]
IC50 (Table 2, 30 minutes at 37° C.): 0.9 µM

SMILES: COc1cc([C@H](CC(=O)O)NC(=O)Nc2c(O)c(C)cn(Cc3ccccc3Cl)c2=O)cc(OC)c1C
IC50 [2]: 0.012 µM

The next lines start with the values.

IC50 [2]: 0.003 µM
SMILES: CCOc1cccc(Cl)c1Cn1c2c(c(O)c(NC(=O)N[C@@H](CC(=O)O)c3ccc(C)cc3)c1=O)CCC2

IC50 [1]: 0.03 µM
SMILES: Cc1cn(Cc2ccccc2Cl)c(=O)c(NC(=O)NC(CC(=O)O)c2ccc3ccccc3c2)c1O (stereo not drawn)

IC50 (Table 3, 30 minutes at 37° C.): 0.008 µM
SMILES: COc1ccc([C@H](CC(=O)O)NC(=O)Nc2c(O)ccn(Cc3ccccc3Cl)c2=O)cc1C [(3S)-3-{[({1-[(2-chlorophenyl)methyl]-4-hydroxy-2-oxo-1,2-dihydro-3-pyridinyl}amino)carbonyl]amino}-3-[3-methyl-4-(methyloxy)phenyl]propanoic acid]

IC50 [1]: 0.01 µM
SMILES: CCc1cn(Cc2ccccc2Cl)c(=O)c(NC(=O)N[C@@H](CC(=O)O)c2ccc(C)cc2)c1O [(3S)-3-[({[1-(2-chlorobenzyl)-5-ethyl-4-hydroxy-2-oxo-1,2-dihydropyridin-3-yl]amino}carbonyl)amino]-3-(4-methylphenyl)propanoic acid]

IC50 [2]: 0.017 µM
SMILES: CCCc1ccc([C@H](CC(=O)O)NC(=O)Nc2c(O)c3c(n(Cc4ccccc4Cl)c2=O)CCC3)cc1

IC50 (Table 3, 30 minutes at 37° C.): 0.015 µM
SMILES: Cc1cc(C)cc([C@H](CC(=O)O)NC(=O)Nc2c(O)ccn(Cc3ccccc3Cl)c2=O)c1 [(3S)-3-{[({1-[(2-chlorophenyl)methyl]-4-hydroxy-2-oxo-1,2-dihydro-3-pyridinyl}amino)carbonyl]amino}-3-(3,5-dimethylphenyl)propanoic acid]

IC50 (Table 3, 30 minutes at 37° C.): 0.005 µM
SMILES: COc1cccc([C@H](CC(=O)O)NC(=O)Nc2c(O)ccn(Cc3ccccc3Cl)c2=O)c1 [(3S)-3-{[({1-[(2-chlorophenyl)methyl]-4-hydroxy-2-oxo-1,2-dihydro-3-pyridinyl}amino)carbonyl]amino}-3-[3-(methyloxy)phenyl]propanoic acid]

IC50 (Table 4, 30 minutes at 37° C.): 0.035 µM
SMILES: Cc1ccc([C@H](CC(=O)O)NC(=O)Nc2c(O)cc(C)n(Cc3ccccc3)c2=O)cc1

IC50 [2]: 0.003 µM
SMILES: CCOc1cccc(Cl)c1Cn1ccc(O)c(NC(=O)N[C@@H](CC(=O)O)c2cccc(OC(C)C)c2)c1=O [(3S)-3-[({[1-(2-chloro-6-ethoxybenzyl)-4-hydroxy-2-oxo-1,2-dihydropyridin-3-yl]amino}carbonyl)amino]-3-(3-isopropoxyphenyl)propanoic acid]

IC50 (Table 6, 30 minutes at 37° C.): 0.035 µM
SMILES: COc1ccc2cc(C(CC(=O)O)NC(=O)Nc3c(O)c(C)cn(Cc4c(C)cccc4Cl)c3=O)ccc2c1 (stereo not drawn)

IC50 [2]: 0.015 µM
SMILES: COc1ccccc1-c1cccc([C@H](CC(=O)O)NC(=O)Nc2c(O)c(C)cn(Cc3ccccc3Cl)c2=O)c1

IC50 (Table 6, 30 minutes at 37° C.): 0.004 µM
SMILES: COc1ccc([C@H](CC(=O)O)NC(=O)Nc2c(O)c(C)cn(Cc3ccccc3Cl)c2=O)cc1 [(3S)-3-[({[1-(2-chlorobenzyl)-4-hydroxy-5-methyl-2-oxo-1,2-dihydropyridin-3-yl]amino}carbonyl)amino]-3-(4-methoxyphenyl)propanoic acid]

IC50 (Table 3, 30 minutes at 37° C.): 0.02 µM
SMILES: O=C(O)C[C@H](NC(=O)Nc1c(O)ccn(Cc2ccccc2Cl)c1=O)c1ccc2c(c1)OCO2

IC50 (Table 6, 30 minutes at 37° C.): 0.012 µM
SMILES: CCOc1cccc([C@H](CC(=O)O)NC(=O)Nc2c(O)c3ccccc3n(Cc3ccccc3Cl)c2=O)c1

IC50 (Table 3, 30 minutes at 37° C.): 0.02 µM
SMILES: COc1cc([C@H](CC(=O)O)NC(=O)Nc2c(O)ccn(Cc3ccccc3Cl)c2=O)cc(OC)c1OC

IC50 [2]: 0.025 µM
SMILES: COc1ccccc1-c1ccc([C@H](CC(=O)O)NC(=O)Nc2c(O)c(C)cn(Cc3ccccc3Cl)c2=O)cc1

IC50 (Table 6, 30 minutes at 37° C.): 0.003 µM
SMILES: CCOc1cccc(Cl)c1Cn1cc(C)c(O)c(NC(=O)N[C@@H](CC(=O)O)c2ccc(C)cc2)c1=O [(3S)-3-[({[1-(2-chloro-6-ethoxybenzyl)-4-hydroxy-5-methyl-2-oxo-1,2-dihydropyridin-3-yl]amino}carbonyl)amino]-3-(4-methylphenyl)propanoic acid]

IC50 (Table 6, 30 minutes at 37° C.): 0.003 µM
SMILES: Cc1cn(Cc2ccccc2Cl)c(=O)c(NC(=O)N[C@@H](CC(=O)O)c2ccc3c(ccn3C)c2)c1O

IC50 [1]: 0.01 µM
SMILES: O=C(O)C[C@H](NC(=O)Nc1c(O)ccn(Cc2ccccc2Cl)c1=O)c1ccc2c(c1)OCCO2 [(3S)-3-[({[1-(2-chlorobenzyl)-4-hydroxy-2-oxo-1,2-dihydropyridin-3-yl]amino}carbonyl)amino]-3-(2,3-dihydro-1,4-benzodioxin-6-yl)propanoic acid]

IC50 [1]: 0.004 µM
SMILES: CCOc1ccc([C@H](CC(=O)O)NC(=O)Nc2c(O)c(C)c(C)n(Cc3c(C)cccc3Cl)c2=O)cc1OCC
